This is an account of results in US20210078988A1, “MODULATORS OF INDOLEAMINE 2,3-DIOXYGENASE” (GLAXOSMITHKLINE INTELLECTUAL PROPERTY DEVELOPMENT LIMITED, priority 2017, published 2021).

Structures are written as SMILES.

T1 sequence (P14902 whole entry): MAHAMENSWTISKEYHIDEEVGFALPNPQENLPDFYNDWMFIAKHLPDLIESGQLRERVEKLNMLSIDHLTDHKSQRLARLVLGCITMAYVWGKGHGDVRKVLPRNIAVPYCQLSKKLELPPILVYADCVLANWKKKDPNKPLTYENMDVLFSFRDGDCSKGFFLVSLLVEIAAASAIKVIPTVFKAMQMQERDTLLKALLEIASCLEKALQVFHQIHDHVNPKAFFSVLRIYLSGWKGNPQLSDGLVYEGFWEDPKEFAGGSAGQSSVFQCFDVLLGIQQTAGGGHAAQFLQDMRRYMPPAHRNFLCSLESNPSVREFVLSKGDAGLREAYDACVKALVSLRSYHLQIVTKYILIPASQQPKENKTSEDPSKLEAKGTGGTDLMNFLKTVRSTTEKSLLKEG

The experiment has as its target T1, indoleamine 2, 3-dioxygenase (IDO1) (Homo sapiens, UniProt P14902).
T1 construct: human peripheral blood mononuclear cells (PBMC) (PB003F; host or cells: human PBMC stimulated with IFN-gamma and LPS
Briefly: PBMC IDO1 assay (kynurenine detection via mass spectrometry). Format: cell-based. As to conditions: human PBMC stimulated with IFN-γ and LPS, 2 days, kynurenine by mass spectrometry; read-out: IDO1 PBMC pIC50 (converted). The procedure: Compounds of the present invention were tested via high-throughput cellular assays utilizing detection of kynurenine via mass spectrometry and cytotoxicity as end-points. For the mass spectrometry and cytotoxicity assays, human peripheral blood mononuclear cells (PBMC) (PB003F; AIICells®, Alameda, Calif.) were stimulated with human interferon-γ (IFN-γ) (Sigma-Aldrich Corporation, St. Louis, Mo.) and lipopolysaccharide from Salmonella minnesota (LPS) (Invivogen, San Diego, Calif.) to induce the expression of indoleamine 2, 3-dioxygenase (IDO1). Compounds with IDO1 inhibitory properties decreased the amount of kynurenine produced by the cells via the tryptophan catabolic pathway. Cellular toxicity due to the effect of compound treatment was measured using CellTiter-Glo® reagent (CTG) (Promega Corporation, Madison, Wis.), which is based on luminescent detection of ATP, an indicator of metabolically active cells.
In preparation for the assays, test compounds were serially diluted 3-fold in DMSO from a typical top concentration of 5 mM and plated at 0.5 μL in 384-well, polystyrene, clear bottom, tissue culture treated plates with lids (Greiner Bio-One, Kremsmunster, Austria) to generate 11-point dose response curves. Low control wells (0% kynurenine or 100% cytotoxicity) contained either 0.5 μL of DMSO in the presence of unstimulated (-IFN-γ/-LPS) PBMCs for the mass spectrometry assay or 0.5 μL of DMSO in the absence of cells for the cytotoxicity assay, and high control wells (100% kynurenine or 0% cytotoxicity) contained 0.5 μL of DMSO in the presence of stimulated (+IFN-γ/+LPS) PBMCs for both the mass spectrometry and cytotoxicity assays.
Frozen stocks of PBMCs were washed and recovered in RPMI 1640 medium (Thermo Fisher Scientific, Inc., Waltham, Mass.) supplemented with 10% v/v heat-inactivated fetal bovine serum (FBS) (Thermo Fisher Scientific, Inc., Waltham, Mass.), and 1× penicillin-streptomycin antibiotic solution (Thermo Fisher Scientific, Inc., Waltham, Mass.). The cells were diluted to 1,000,000 cells/mL in the supplemented RPMI 1640 medium. 50 μL of either the cell suspension, for the mass spectrometry assay, or medium alone, for the cytotoxicity assay, were added to the low control wells, on the previously prepared 384-well compound plates, resulting in 50,000 cells/well or 0 cells/well respectively. IFN-γ and LPS were added to the remaining cell suspension at final concentrations of 100 ng/ml and 50 ng/ml respectively, and 50 μL of the stimulated cells were added to all remaining wells on the 384-well compound plates. The plates, with lids, were then placed in a 37° C., 5% CO2 humidified incubator for 2 days.
Following incubation, the 384-well plates were removed from the incubator and allowed to equilibrate to room temperature for 30 minutes. For the cytotoxicity assay, CellTiter-Glo® was prepared according to the manufacturer's instructions, and 40 μL were added to each plate well. After a twenty minute incubation at room temperature, luminescence was read on an EnVision® Multilabel Reader (PerkinElmer Inc., Waltham, Mass.). For the mass spectrometry assay, 10 μL of supernatant from each well of the compound-treated plates were added to 40 μL of acetonitrile, containing 10 μM of an internal standard for normalization, in 384-well, polypropylene, V-bottom plates (Greiner Bio-One, Kremsmunster, Austria) to extract the organic analytes. Following centrifugation at 2000 rpm for 10 minutes, 10 μL from each well of the acetonitrile extraction plates were added to 90 μL of sterile, distilled H2O in 384-well, polypropylene, V-bottom plates for analysis of kynurenine and the internal standard on the RapidFire 300 (Agilent Technologies, Santa Clara, Calif.) and 4000 QTRAP MS (SCIEX, Framingham, Mass.). MS data were integrated using Agilent Technologies' RapidFire Integrator software, and data were normalized for analysis as a ratio of kynurenine to the internal standard. […]
In the case of `CCc1ccc(C(=O)NC(CC2CCN(C(=O)OC(C)(C)C)CC2)c2ccccc2)s1` (centres unmarked) [Example 1, tert-butyl 4-(2-(5-ethylthiophene-2-carboxamido)-2-phenylethyl)piperidine-1-carboxylate], the IC50 was 7.94 nM. In the case of `CC(C)(C)OC(=O)N1CCC(CC(NC(=O)c2ccc(Br)s2)c2ccccc2)CC1` (centres unmarked) [Example 2, tert-butyl 4-(2-(5-bromothiophene-2-carboxamido)-2-phenylethyl)piperidine-1-carboxylate], the IC50 is 7.94 nM. Next, `CC(C)(C)OC(=O)N1CCC(CC(NC(=O)c2ccc(Cl)s2)c2ccccc2)CC1` (centres unmarked) [Example 3, tert-butyl 4-(2-(5-chlorothiophene-2-carboxamido)-2-phenylethyl)piperidine-1-carboxylate]: 10 nM; `C#Cc1ccc(C(=O)NC(CC2CCN(C(=O)OC(C)(C)C)CC2)c2ccccc2)s1` (centres unmarked) [Example 4, tert-butyl 4-(2-(5-ethynylthiophene-2-carboxamido)-2-phenylethyl)piperidine-1-carboxylate]: 3.98 nM; `C#Cc1ccc(C(=O)NC(CC2CCN(C(=O)OC(C)(C)C)CC2)c2ccccc2)cc1` (centres unmarked) [Example 5, tert-butyl 4-(2-(4-ethynylbenzamido)-2-phenylethyl)piperidine-1-carboxylate]: 7.94 nM.

Consider `C#Cc1ccc(C(=O)NC(CC2CCN(C(=O)OC(C)(C)C)CC2)c2ccccc2)cc1F` (centres unmarked) [Example 6, tert-butyl 4-(2-(4-ethynyl-3-fluorobenzamido)-2-phenylethyl)piperidine-1-carboxylate], for which the IC50 was 10 nM.

Regarding `CCOC(=O)N1CCC(CC(NC(=O)c2ccc(Cl)s2)C2CC2)CC1` (centres unmarked) [Example 7, ethyl 4-(2-(5-chlorothiophene-2-carboxamido)-2-cyclopropylethyl)piperidine-1-carboxylate], the IC50 was 6.31 nM. Consider `CC(C)(C)OC(=O)N1CCC(C[C@H](NC(=O)c2ccc(Cl)s2)C2CC2)CC1` [Example 8, (S)-tert-butyl 4-(2-(5-chlorothiophene-2-carboxamido)-2-cyclopropylethyl)piperidine-1-carboxylate], for which the IC50 was 6.31 nM.

With `Cc1ccc(C(=O)N[C@@H](CC2CCN(C(=O)OC(C)(C)C)CC2)C2CC2)s1` [Example 9, (S)-tert-butyl 4-(2-cyclopropyl-2-(5-methylthiophene-2-carboxamido)ethyl)piperidine-1-carboxylate], the IC50 was 5.01 nM.

As to `CCc1ccc(C(=O)N[C@@H](CC2CCN(C(=O)OC(C)(C)C)CC2)C2CC2)s1` [Example 10, (S)-tert-butyl 4-(2-cyclopropyl-2-(5-ethylthiophene-2-carboxamido)ethyl)piperidine-1-carboxylate], the IC50 was 5.01 nM. Next, `CCOC(=O)N1CCC(C[C@H](NC(=O)c2ccc(C)s2)C2CC2)CC1` [Example 11, (S)-ethyl 4-(2-cyclopropyl-2-(5-methylthiophene-2-carboxamido)ethyl)piperidine-1-carboxylate]: 5.01 nM. Next, `CCOC(=O)N1CCC(C[C@H](NC(=O)c2ccc(Cl)s2)C2CC2)CC1` [Example 12, ethyl (S)-4-(2-(5-chlorothiophene-2-carboxamido)-2-cyclopropylethyl)piperidine-1-carboxylate]: 3.16 nM; `COC(=O)N1CCC(C[C@H](NC(=O)c2ccc(Cl)s2)C2CC2)CC1` [Example 13, (S)-methyl 4-(2-(5-chlorothiophene-2-carboxamido)-2-cyclopropylethyl)piperidine-1-carboxylate]: 7.94 nM; `CC(C)OC(=O)N1CCC(C[C@H](NC(=O)c2ccc(Cl)s2)C2CC2)CC1` [Example 14, isopropyl (S)-4-(2-(5-chlorothiophene-2-carboxamido)-2-cyclopropylethyl)piperidine-1-carboxylate]: 3.98 nM. The value for `COc1ccc(C(CC2CCN(C(=O)OC(C)(C)C)CC2)NC(=O)c2ccc(Cl)s2)cn1` (centres unmarked) [Example 15, tert-butyl 4-(2-(5-chlorothiophene-2-carboxamido)-2-(6-methoxypyridin-3-yl)ethyl)piperidine-1-carboxylate] was 3.98 nM; that for `COc1ccc([C@H](CC2CCN(C(=O)OC(C)(C)C)CC2)NC(=O)c2ccc(Cl)s2)cn1` [Example 16, tert-butyl (S)-4-(2-(5-chlorothiophene-2-carboxamido)-2-(6-methoxypyridin-3-yl)ethyl)piperidine-1-carboxylate] was 0.794 nM. Regarding `COc1ccc([C@H](CC2CCN(C(=O)OC(C)(C)C)CC2)NC(=O)c2ccc(F)cc2)cn1` [Example 17, tert-butyl (S)-4-(2-(4-fluorobenzamido)-2-(6-methoxypyridin-3-yl)ethyl)piperidine-1-carboxylate], the IC50 is 7.94 nM. The value for `CC(C)CC(CC1CCN(C(=O)OC(C)(C)C)CC1)NC(=O)c1ccc(Cl)s1` (centres unmarked) [Example 18, tert-butyl 4-(2-(5-chlorothiophene-2-carboxamido)-4-methylpentyl)piperidine-1-carboxylate] was 6.31 nM; that for `COc1ccc([C@H](CC2CCN(C(=O)OC(C)(C)C)CC2)NC(=O)c2ccc(Cl)cc2)cn1` [Example 19, tert-butyl (S)-4-(2-(4-chlorobenzamido)-2-(6-methoxypyridin-3-yl)ethyl)piperidine-1-carboxylate] was 3.98 nM; that for `COc1ccc([C@H](CC2CCN(C(=O)OC(C)(C)C)CC2)NC(=O)c2ccc(C)s2)cn1` [Example 20, tert-butyl(S)-4-(2-(6-methoxypyridin-3-yl)-2-(5-methylthiophene-2-carboxamido)ethyl)piperidine-1-carboxylate] was 2 nM. The value for `COc1ccc([C@H](CC2CCN(C(=O)OC(C)C)CC2)NC(=O)c2ccc(Cl)s2)cn1` [Example 21, isopropyl (S)-4-(2-(5-chlorothiophene-2-carboxamido)-2-(6-methoxypyridin-3-yl)ethyl)piperidine-1-carboxylate] was 1.58 nM; that for `COc1ccc([C@H](CC2CCN(C(=O)OC(C)C)CC2)NC(=O)c2ccc(Cl)cc2)cn1` [Example 22, isopropyl (S)-4-(2-(4-chlorobenzamido)-2-(6-methoxypyridin-3-yl)ethyl)piperidine-1-carboxylate] was 2 nM. For `COc1ccc([C@H](CC2CCN(C(=O)OC(C)(C)C)CC2)NC(=O)c2ccc(Br)cc2)cn1` [Example 23, tert-butyl (S)-4-(2-(4-bromobenzamido)-2-(6-methoxypyridin-3-yl)ethyl)piperidine-1-carboxylate], the IC50 was 3.98 nM. Next, `CCc1ccc(C(=O)N[C@@H](CC2CCN(C(=O)OC(C)(C)C)CC2)c2ccc(OC)nc2)s1` [Example 24, tert-butyl (S)-4-(2-(5-ethylthiophene-2-carboxamido)-2-(6-methoxypyridin-3-yl)ethyl)piperidine-1-carboxylate]: 3.16 nM; `COc1ccc([C@H](CC2CCN(C(=O)OC(C)(C)C)CC2)NC(=O)c2ccc(F)s2)cn1` [Example 25, tert-butyl (S)-4-(2-(5-fluorothiophene-2-carboxamido)-2-(6-methoxypyridin-3-yl)ethyl)piperidine-1-carboxylate]: 3.16 nM. Next, `Cc1ccc(C(=O)NC(CC(C)C)CC2CCN(C(=O)OC(C)(C)C)CC2)s1` (centres unmarked) [Example 26, tert-butyl 4-(4-methyl-2-(5-methylthiophene-2-carboxamido)pentyl)piperidine-1-carboxylate]: 7.94 nM.
